US10874650B1 (Ferrer Medical Innovations, LLC, priority 2020, dated 2020)
Counter-ions that a name gives are not always drawn. Marks after values point to notes of the source that are not given here.

Legend:
[1] = system: divergent influenza A strains and influenza B strain; details: cited from earlier work
[2] = system: avian H7N9 influenza virus; details: mice; cited from earlier work
[3] = system: SARS-CoV-2, USA-WA1/2020 strain; format: cell-based; details: nasal spray 90%, ethanol 67.5%

| Structure (SMILES) | inhibitory activity against influenza [1] | protection from fatal challenge [2] | Virus Titer ([3]; after 25 minutes incubation with virus at 22±2° C., average of three replicates ± standard deviation) | Log Reduction Value ([3]; reduction of virus compared with virus control (water), 25 minutes incubation at 22±2° C.) |
| --- | --- | --- | --- | --- |
| CN(C)CCC(c1ccc(Cl)cc1)c1ccccn1 (stereo not shown) [Chlorpheniramine, chlorpheniramine maleate] | potent inhibitory activity | protects mice from fatal challenge |  |  |
| CCO [Ethanol] |  |  | 1.0 ± 0.6 Log10 CCID50/mL | 3.2*** |
